# According to patent publication US20070021405A1, “ARYL- AND HETEROARYLPIPERIDINECARBOXYLATE-DERIVATIVES METHODS FOR THEIR PREPARATION AND USE THEREOF AS FATTY ACID AMIDO HYDROLASE ENZYME INHIBITORS” (SANOFI-AVENTIS, priority 2004, published 2007):
# Biological target: T1, enzyme FAAH (Fatty Acid Amido Hydrolase) (Mus musculus, UniProt O08914)
# T1 construct: The membrane homogenates are prepared at the time of use by homogenization of the tissues; from tissue; host or cells: mouse brain (minus the cerebellum), membrane homogenate
# T1 sequence (O08914 1-579): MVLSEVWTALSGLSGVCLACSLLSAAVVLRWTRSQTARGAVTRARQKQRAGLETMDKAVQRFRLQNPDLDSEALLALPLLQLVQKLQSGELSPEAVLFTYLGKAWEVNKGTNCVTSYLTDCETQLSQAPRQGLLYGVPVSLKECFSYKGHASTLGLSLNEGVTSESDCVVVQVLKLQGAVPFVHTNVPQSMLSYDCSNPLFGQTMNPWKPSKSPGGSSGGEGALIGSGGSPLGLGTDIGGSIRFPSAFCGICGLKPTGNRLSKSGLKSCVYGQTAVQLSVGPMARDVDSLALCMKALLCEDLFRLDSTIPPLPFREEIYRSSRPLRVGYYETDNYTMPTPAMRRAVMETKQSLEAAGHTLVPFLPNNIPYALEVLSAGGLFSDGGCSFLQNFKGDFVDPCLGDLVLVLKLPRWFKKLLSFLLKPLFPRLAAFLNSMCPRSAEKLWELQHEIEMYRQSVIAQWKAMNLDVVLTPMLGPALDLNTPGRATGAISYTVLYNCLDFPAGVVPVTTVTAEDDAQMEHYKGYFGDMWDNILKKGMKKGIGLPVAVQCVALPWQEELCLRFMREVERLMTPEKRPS
# Assay: radioenzymatic test of FAAH inhibition: hydrolysis of ((1-3H)ethanolamine)-anandamide by mouse brain membrane homogenates
# Assay type: biochemical
# Conditions: mouse brain membrane homogenate, 10 μM anandamide, 15 minutes at 25° C.; read-out: IC50 (concentration which inhibits the control enzymatic activity of FAAH by 50%)
# Method: The compounds of the invention have formed the subject of pharmacological trials which make it possible to determine their inhibitory effect on the enzyme FAAH (Fatty Acid Amido Hydrolase).
# Thus, mouse brains (minus the cerebellum) are removed and stored at −80° C. The membrane homogenates are prepared at the time of use by homogenization of the tissues with a Polytron in a 10 mM Tris-HCl buffer (pH 8.0) comprising 150 mM NaCl and 1 mM EDTA. The enzymatic reaction is subsequently carried out in 70 μl of buffer comprising bovine serum albumin free from fatty acids (1 mg/ml). The test compounds, at various concentrations, the ((1-^3H)ethanolamine)-anandamide (specific activity of 15-20 Ci/mmol), diluted to 10 μM with non-radiolabelled anandamide, and the membrane preparation (400 μg of frozen tissue per assay) are successively added. After 15 minutes at 25° C., the enzymatic reaction is halted by addition of 140 μl of chloroform/methanol (2:1). The mixture is stirred for 10 minutes and is then centrifuged at 3500 g for 15 minutes. An aliquot (30 μl) of the aqueous phase comprising the (1-^3H)ethanolamine is counted by liquid scintillation.
row,Structure (SMILES),IC50 [nM]
1,"CNC(=O)COC(=O)N1CCC(O)(c2ccc(-c3ccc(Cl)c(Cl)c3)cc2)CC1 [Compound No. 40, 2-(Methylamino)-2-oxoethyl 4-(3′,4′-dichlorobiphenyl-4-yl)-4-hydroxypiperidine-1-carboxylate]",98
2,"CCOc1ccc(-c2ccc(C3(O)CCN(C(=O)OCC(=O)NC)CC3)cc2)cc1 [compound 39, 2-(methylamino)-2-oxoethyl 4-(4′-ethoxybiphenyl-4-yl)-4-hydroxypiperidine-1-carboxylate]",95

# Tested on: male OF1 mice
# Assay: test for analgesia: abdominal tractions induced by PBQ (phenylbenzoquinone) i.p.
# Assay type: in vivo, mouse
# Conditions: 3 mg/kg p.o., administered 60 minutes before PBQ
# Method: The in vivo activity of the compounds of the invention was evaluated in a test for analgesia.
# Thus, the intraperitoneal (i.p.) administration of PBQ (phenylbenzoquinone, 2 mg/kg in a 0.9% sodium chloride solution comprising 5% of ethanol) to male OF1 mice weighing 25 to 30 g causes abdominal tractions, on average 30 twisting or contracting motions during the period from 5 to 15 minutes after injection. The test compounds are administered, orally (p.o.) or intraperitoneally (i.p.) in suspension in 0.5% Tween 80, 60 minutes or 120 minutes before the administration of PBQ. Under these conditions, the most powerful compounds of the invention reduce by 35 to 70% the number of tractions induced by the PBQ, within a range of doses of between 1 and 30 mg/kg.
row,Structure (SMILES),reduction of the number of tractions induced by the PBQ [%]
1,"CNC(=O)COC(=O)N1CCC(CCc2ccc(Cl)cc2)CC1 [compound 57, 2-(methylamino)-2-oxoethyl 4-[2-(4-chloro-phenyl)ethyl]piperidine-1-carboxylate]",37

# Same assay, conditions: 3 mg/kg p.o., administered 120 minutes before PBQ
row,Structure (SMILES),reduction of the number of tractions induced by the PBQ [%]
1,"CNC(=O)COC(=O)N1CCC(CCc2ccc(Cl)cc2)CC1 [compound 57, 2-(methylamino)-2-oxoethyl 4-[2-(4-chloro-phenyl)ethyl]piperidine-1-carboxylate]",74

# Tested on: not given
# Assay: not given
# Conditions: not given
row,Structure (SMILES),melting point [°C]
1,"CNC(=O)COC(=O)N1CCC(n2cnc(-c3ccccc3)c2)CC1 [Compound No. 14, 2-(Methylamino)-2-oxoethyl 4-(4-phenyl-1H-imidazol-1-yl)piperidine-1-carboxylate]",192 to 194
2,"CNC(=O)COC(=O)N1CCC(O)(c2ccc(Br)cc2)CC1 [Compound No. 32, 2-(Methylamino)-2-oxoethyl 4-(4-bromophenyl)-4-hydroxypiperidine-1-carboxylate]",57 to 60
3,"CNC(=O)COC(=O)N1CCC(O)(c2ccc(-c3ccc(Cl)c(Cl)c3)cc2)CC1 [Compound No. 40, 2-(Methylamino)-2-oxoethyl 4-(3′,4′-dichlorobiphenyl-4-yl)-4-hydroxypiperidine-1-carboxylate]",156 to 158
4,"CNC(=O)COC(=O)N1CCC(Cc2ccc3ccccc3c2)CC1 [Compound No. 43, 2-(Methylamino)-2-oxoethyl 4-(naphth-2-ylmethyl)piperidine-1-carboxylate]",150 to 152
5,"CNC(=O)COC(=O)N1CCC(CCc2nccc3ccccc23)CC1 [Compound No. 74, 2-(Methylamino)-2-oxoethyl 4-(2-(isoquinolin-1-yl)ethyl)-1-piperidinecarboxylate]",126 to 128
6,"CNC(=O)COC(=O)N1CCC(CCCc2ccc(Cl)cc2)CC1 [Compound No. 83, 2-(Methylamino)-2-oxoethyl 4-[3-(4-chlorophenyl)propyl]piperidine-1-carboxylate]",118 to 120
7,"CNC(=O)COC(=O)N1CCC(CC#Cc2ccc(Cl)cc2)CC1 [Compound No. 107, 2-(Methylamino)-2-oxoethyl 4-[3-(4-chlorophenyl)prop-2-yn-1-yl]piperidine-1-carboxylate]",101 to 103
8,"NC(=O)COC(=O)N1CCC(Cn2ccc3ccccc32)CC1 [compound 47, 2-amino-2-oxoethyl 4-(1H-indol-1-ylmethyl)piperidine-1-carboxylate]",158 to 159
